Test results: patent US8519136B2, “Aminopyridine derivatives having aurora a selective inhibitory action” (MSD K.K., priority 2008, dated 2013)
Where a name gives a salt, the structure may show the parent alone.

Columns and labels:
[1] = biological target: T1, GST-tagged human Aurora B(AurB)/His-tagged human INCENP complex proteins (Homo sapiens, UniProt Q96GD4); assay: Aurora B inhibitory activity (Method A, IMAP kit); assay type: biochemical; details: 40 μM ATP, 25° C., 45 minutes
T1 construct: GST; purchased Carna Biosciences, Inc
T1 sequence (Q96GD4 whole entry): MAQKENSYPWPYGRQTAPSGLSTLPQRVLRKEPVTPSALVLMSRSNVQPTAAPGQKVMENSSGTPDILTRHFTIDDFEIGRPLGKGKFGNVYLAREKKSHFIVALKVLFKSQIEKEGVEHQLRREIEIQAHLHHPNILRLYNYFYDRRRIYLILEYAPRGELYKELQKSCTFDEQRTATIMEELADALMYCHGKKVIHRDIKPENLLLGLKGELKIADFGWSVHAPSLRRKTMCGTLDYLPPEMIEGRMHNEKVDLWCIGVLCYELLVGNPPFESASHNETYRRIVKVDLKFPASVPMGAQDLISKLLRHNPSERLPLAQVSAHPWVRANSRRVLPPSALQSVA
T1 sequence (Q9NQS7 803-916 partner limits assumed): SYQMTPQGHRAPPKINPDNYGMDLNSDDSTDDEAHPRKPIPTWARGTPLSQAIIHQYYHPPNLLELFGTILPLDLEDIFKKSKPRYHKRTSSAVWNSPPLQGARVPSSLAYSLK
Protocol: An assay development kit for IMAP (registered trademark) (Aurora B), purchased from Carna Biosciences, Inc., was used for phosphorylation reaction, and the phosphorylation of a substrate was detected using the IMAP technology. The assay development kit used is comprised of an assay buffer, GST-tagged human Aurora B(AurB)/His-tagged human INCENP complex proteins (amino acid sequence: 803-916, AAU04398.1), and an ATP/substrate solution. Using the same, the phosphorylation reaction was conducted in accordance with a partially revised protocol attached to the kit, and then the phosphorylation of the substrate was detected using the IMAP technology.
For the phosphorylation reaction, 384 well plate was used, and the reaction volume was 10 μl/well. The composition of the reaction buffer (assay buffer) is comprised of 20 mM of HEPES buffer (pH 7.4), 0.01% Tween-20, and 2 mM of dithiothreitol (DTT). Thereto, AurB/INCENP complex protein, 100 nM of the substrate, and 40 μM of ATP, and 1 mM of magnesium salt were added, and then the reaction was conducted at 25° C. for 45 minutes. Thereafter, in order to terminate and detect the reaction, 30 μl of the IMAP (registered trademark) binding reagent (IMAP Progressive Binding Reagent, R7284) that had been diluted (1:400) in the 1×IMAP binding buffer A (IMAP Progressive Binding Buffer A, 5× stock, R7282) was added to each well. The solution stood still for 60 minutes in the dark, and then fluorescence polarization was measured using a high-end microplate reader (excitation wavelength: 485 nm; emission wavelength: 520 nm).
(§1) The compound to be tested was added to the reaction system such that a dilution series of the compound in DMSO was prepared, and then 0.5 μL of this solution was added for the testing to each well. Each control well was provided by adding 0.5 μL of DMSO to the well in place of the DMSO solution containing the compound to be tested.

[2] = system: Human cervical cancer cells (HeLa S3); assay: Cell growth inhibitory effect, WST-8 method; assay type: cell-based; details: 72 h, HeLa S3, three days incubation, read-out: Cell growth inhibitory effect (HeLaS3) (IC50)
Protocol: Fetal calf serum (FCS) was purchased from Moregate Biotech, and DMEM medium was purchased from Invitrogen Corp. WST-8 was purchased from Kishida Chemical Co., Ltd.
(§2) Human cervical cancer cells (HeLa S3) were obtained from the American Type Culture Collection (ATCC).
Cells were suspended in a DMEM medium containing 10% FCS, and the cell suspension was dispensed to a 96-well plastic plate at a rate of 750 cells/100 microliters per well. The plate was incubated overnight in 5% CO2-95% air at 37° C. A drug was subjected to graded dilution in dimethylsulfoxide and further diluted with a DMEM medium containing 10% FCS. Then, the dilution was dispensed to the plate on which cells had been disseminated, at a rate of 100 microliters per well. The plate was incubated for further three days in 5% CO2-95% air at 37° C. Cell growth after incubation was measured by the WST-8 method (H. Tominaga, et al., Anal. Commun., 36, 47-50 (1999)). Here, the WST-8 method refers to a method in which 20 microliters of a WST-8 reagent solution is added to each well, incubation is conducted at 37° C. for 60 minutes, the plate is stirred, and the amount of formazan produced is measured by a colorimetric method to determine the inhibitory rate of the drug. The concentration for 50% growth inhibition (IC50, μM) of the compound was determined.

[3] = biological target: T2, His-tagged human Aurora A (Homo sapiens, UniProt O14965); assay: Aurora A inhibitory activity (IMAP fluorescence polarization); assay type: biochemical; details: 20 μM ATP, 30° C., 120 minutes
T2 construct: His (N); made in house; host or cells: Escherichia coli BL21-CodonPlus(DE3)-RIL
T2 sequence (O14965 1-403): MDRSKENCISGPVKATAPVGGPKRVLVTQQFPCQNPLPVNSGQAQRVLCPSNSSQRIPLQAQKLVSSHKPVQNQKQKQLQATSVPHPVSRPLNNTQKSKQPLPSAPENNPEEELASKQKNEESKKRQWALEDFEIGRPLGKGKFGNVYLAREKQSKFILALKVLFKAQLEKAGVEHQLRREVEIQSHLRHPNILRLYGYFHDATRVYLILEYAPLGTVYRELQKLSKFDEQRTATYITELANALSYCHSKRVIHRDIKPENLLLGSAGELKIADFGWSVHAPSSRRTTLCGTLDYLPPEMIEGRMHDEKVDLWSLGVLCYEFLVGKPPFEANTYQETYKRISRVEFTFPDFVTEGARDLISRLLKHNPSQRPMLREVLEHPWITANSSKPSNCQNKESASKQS
Description: cDNA of N-terminal His-tagged human Aurora A was integrated into an expression vector, which was then highly expressed in Escherichia coli BL21-CodonPlus(DE3)-RIL cells. The Escherichia coli was harvested and lysed, and then the His-tagged human Aurora A protein was applied onto a nickel chelate column and eluted from the column with imidazole. The active fractions were desalted with a desalting column to give a purified enzyme.
For measurement of the activity of Aurora A, the substrate used was a synthetic peptide (5-FAM (5-carboxyfluorescein)-γ-aminobutyric acid-Ala-Leu-Arg-Arg-Ala-Ser-Leu-Gly-NH2) (SEQ.ID.NO.: 1), which was purchased from Toray Research Center, Inc.
For the phosphorylation reaction, the method by Upstate, Inc. [Kinase Profiler™ Assay Protocols] was referred to, and phosphorylation of the substrate was detected using IMAP® technology (Molecular Devices, Co. Ltd.) (Gaudet E W. et. al, J. Biomol. Screen, 8, 164-175 (2003)). Concretely, the phosphorylation reaction and the detection were carried out as follows:
The phosphorylation reaction was conducted using 384 well plate, and the reaction volume was 10 μl/well. The reaction buffer is comprised of 50 mM Tris-chloride buffer (pH 7.4), 15 mM magnesium acetate, and 0.2 mM ethylenediamine-N,N,N′,N′-tetraacetic acid (EDTA). Thereto, the purified Aurora A protein, 100 nM of the peptide substrate, and 20 μM of adenosine 5′-triphosphate (ATP) were added, and then the reaction was carried out at 30° C. for 120 minutes.
Thereafter, in order to terminate and detect the reaction, 30 μl of the IMAP (registered trademark) binding reagent (IMAP Progressive Binding Reagent, R7284) that had been diluted (1:400) in the 1×IMAP binding buffer A (IMAP Progressive Binding Buffer A, 5× stock, R7282) was added to each well. The solution stood still for 60 minutes in the dark, and then fluorescence polarization was measured using a high-end microplate reader (excitation wavelength: 485 nm; emission wavelength: 520 nm).
as §1, with “in dimethylsulfoxide (DMSO)” for “in DMSO”

[4] = system: Human cervical cancer cells (HeLa S3); assay: Effect by combined use of drugs in cells (with docetaxel), WST-8 method; assay type: cell-based; details: HeLa S3, three days; for inhibition at 0.03 µM: compound 30 nM alone
Protocol: Fetal calf serum (FCS) was purchased from Moregate Biotech, DMEM medium from Invitrogen Corp., docetaxel (tradename: Taxere) from Sigma-Aldrich, Inc., and WST-8 from Kishida Chemical Co., Ltd.
as §2
Cells were suspended in a DMEM medium containing 10% FCS, and the cell suspension was dispensed to two 96-well plastic plates at a rate of 750 cells/100 microliters per well. The plates were incubated overnight in 5% CO2-95% air at 37° C. A drug was subjected to graded dilution in dimethylsulfoxide and further diluted with DMSO or with a DMEM medium containing 10% FCS and also containing 0.6 nM docetaxel. Then, the dilutions were each dispensed to one of the plates on which cells had been disseminated, at a rate of 100 microliters per well. The final concentration of docetaxel at this stage was 0.3 nM. Also, the concentrations in the case of sole administration of the compound according to the invention were 0.003, 0.01, 0.03, 0.1, 0.3, 1, 3 and 10 μM. The plates were incubated for further three days in 5% CO2-95% air at 37° C. Cell growth after incubation was measured by the WST-8 method (H. Tominaga, et al., Anal. Commun., 36, 47-50 (1999)). Here, the WST-8 method refers to a method in which 20 microliters of a WST-8 reagent solution is added to each well, incubation is conducted at 37° C. for 60 minutes, the plate is stirred, and the amount of formazan produced is measured by a colorimetric method to determine the inhibitory rate of the drug. The growth inhibitory effects of docetaxel and of the compound according to the invention were determined, with the value obtained in sole treatment of DMSO being defined as 0%.

[5] = Homo sapiens, HeLa S3, 72 h, read-out: Cell growth inhibitory effect by sole administration of the compound of Example (%)
[6] = compound 30 nM + docetaxel 0.3 nM

IC50 [1] [nM]	IC50 [2] [nM]	IC50 [3] [nM]	SMILES	inhibition at 0.03 µM [4, 5] [%]	Cell growth inhibitory effect by combined administration of docetaxel and the compound of Example (%) [4, 6] [%]	inhibition at 0.01 µM ([4]; Homo sapiens, HeLa S3, 72 h, compound 10 nM alone, read-out: Cell growth inhibitory effect by sole administration of the compound of Example (%)) [%]	Cell growth inhibitory effect by combined administration of docetaxel and the compound of Example (%) ([4]; compound 10 nM + docetaxel 0.3 nM)	inhibition at 0.0003 µM ([4]; Homo sapiens, HeLa S3, 72 h, docetaxel 0.3 nM alone, DMSO = 0%, read-out: Cell growth inhibitory effect by sole administration of docetaxel (0.3 nM) (%)) [%]	Cell growth inhibitory effect by sole administration of docetaxel (0.3 nM) (%) ([4]; docetaxel 0.3 nM alone, DMSO = 0%)
35.8	220	0.25	O=C(c1cccc(C(F)(F)F)c1F)N1CCC(Cc2cccc(Nc3cc[nH]n3)n2)(c2n[nH]c(=O)o2)CC1 [Example 9, 5-(1-(2-fluoro-3-(trifluoromethyl)benzoyl)-4-((6-(1H-pyrazol-3-ylamino)pyridin-2-yl)methyl)piperidin-4-yl)-1,3,4-oxadiazol-2(3H)-one]	20.3	90.9	–	–	–	–
166	280	0.27	O=C(c1cccc(Cl)c1F)N1CCC(Cc2cccc(Nc3cc[nH]n3)n2)(c2n[nH]c(=O)o2)CC1 [Example 10, 5-(1-(3-chloro-2-fluorobenzoyl)-4-((6-(1H-pyrazol-3-ylamino)pyridin-2-yl)methyl)piperidin-4-yl)-1,3,4-oxadiazol-2(3H)-one trifluoroacetate]	3.3	84.8	–	–	–	–
381	100	0.3	O=C(c1cccc(Cl)c1F)N1CCC(Cc2cc(-c3ccccc3)cc(Nc3cc[nH]n3)n2)(c2n[nH]c(=O)o2)CC1 [Example 17, 5-(1-(3-chloro-2-fluorobenzoyl)-4-((4-phenyl-6-(1H-pyrazol-3-ylamino)pyridin-2-yl)methyl)piperidin-4-yl)-1,3,4-oxadiazol-2(3H)-one]	–	–	4.2	80.8	–	–
–	–	–	CC(=O)O[C@@]12CO[C@@H]1C[C@H](O)[C@@]1(C)C(=O)[C@H](O)C3=C(C)[C@@H](OC(=O)[C@H](O)[C@@H](NC(=O)OC(C)(C)C)c4ccccc4)C[C@@](O)([C@@H](OC(=O)c4ccccc4)[C@H]21)C3(C)C [docetaxel, reference compound]	–	–	–	–	49.6	51.6
